# From patent publication US20260250320A1, “LIPIDATED PEPTIDE INHIBITORS OF INTERLEUKIN-23 RECEPTOR” (Janssen Pharmaceutica NV, priority 2023, published 2026)
# *1 amine or outer side, *2 acyl side, *3 side chain or, on linkers, in order; H or OH if unused. Where a SMILES comes first, the peptide text is derived from it. Bridges are numbered along the chain shown (N, C = ends). Side-chain parts run from the residue outwards. [ ]: non-standard residue; d: D form. The star is where a group is joined. FITC = O=C1OC2(c3ccc(O)cc3Oc3cc(O)ccc32)c2ccc(NC(=S)*)cc21; Trp(7-Me) = Cc1cccc2c(C[C@H](N)C(=O)O)c[nH]c12; C18 diacid = O=C(O)CCCCCCCCCCCCCCCCC(=O)*; γGlu = O=C(O)[C@H](CCC(=O)[*:2])N[*:1]; 2Nal = N[C@@H](Cc1ccc2ccccc2c1)C(=O)O; AEF = NCCOc1ccc(C[C@H](N)C(=O)O)cc1; X2 = C[N+](C)(C)C[C@@H](CC(=O)O)N*; 3Pal = N[C@@H](Cc1cccnc1)C(=O)O; NMeK = CN[C@@H](CCCCN)C(=O)O; PEG4 = NCCOCCOCCOCCOCCC(=O)O; Pen = CC(C)(S)[C@H](N)C(=O)O; Suc = O=C(CCC(=O)[*:2])[*:1]; Thp = NC1(C(=O)O)CCOCC1; AEEA = NCCOCCOCC(=O)O; Sar = CNCC(=O)O
# Assays:
# [1] = system: IL-23-stimulated phosphorylated STAT3 in peripheral blood mononuclear cells (PBMCs); assay: PBMC pSTAT3 Assay; assay type: cell-based; conditions: PBMCs from healthy donors; 30 min preincubation with peptide; IL-23 5 ng/mL for 30 min; phospho-STAT3 by MSD
# In short: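 Phospho-STAT3 quantified by Meso Scale assay in lysates of PBMCs exposed to IL-23 (5 ng/mL, 30 min, 37 °C) after 30 min peptide pretreatment. Cells were cryopreserved donor PBMCs activated 4 days with anti-CD3 plus IL-1β (100 ng/mL) and starved ~4 h; IC50 reported.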
# IL-23R = target: T1, IL-23R (Homo sapiens, UniProt Q5VWK5); assay: IL23R Reporter Assay; assay type: cell-based; conditions: HEK293 cells containing IL-23R, IL-12Rβ1 and STAT-inducible firefly luciferase reporter; 10 ng/mL IL-23 (EC90); 5 h
# T1 construct: HEK293 cells containing IL-23R, IL-12Rβ1 and a firefly luciferase reporter gene driven by a STAT-inducible promoter (Promega); host or cells: HEK293
# T1 sequence (Q5VWK5 24-629): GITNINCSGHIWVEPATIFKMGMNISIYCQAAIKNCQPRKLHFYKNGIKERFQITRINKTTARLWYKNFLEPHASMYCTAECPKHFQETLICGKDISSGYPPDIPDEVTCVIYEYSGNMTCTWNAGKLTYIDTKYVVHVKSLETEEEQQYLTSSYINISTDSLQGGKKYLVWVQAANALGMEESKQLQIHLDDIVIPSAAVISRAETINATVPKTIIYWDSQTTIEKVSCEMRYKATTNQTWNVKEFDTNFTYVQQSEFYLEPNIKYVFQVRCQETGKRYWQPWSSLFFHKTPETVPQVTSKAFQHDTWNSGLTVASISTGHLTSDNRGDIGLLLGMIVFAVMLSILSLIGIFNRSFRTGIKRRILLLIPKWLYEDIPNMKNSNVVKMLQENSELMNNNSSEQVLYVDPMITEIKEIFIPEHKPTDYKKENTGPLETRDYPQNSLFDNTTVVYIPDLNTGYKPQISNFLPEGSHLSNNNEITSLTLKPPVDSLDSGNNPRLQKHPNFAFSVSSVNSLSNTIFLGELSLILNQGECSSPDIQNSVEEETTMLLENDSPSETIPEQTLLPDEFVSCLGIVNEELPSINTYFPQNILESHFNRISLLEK
# In short: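 IC50 values were fitted with a 4-parameter Hill equation to luciferase signal, scaled between IL-23-only wells (0% inhibition) and 30 μM reference inhibitor (100%). The readout was a STAT-inducible reporter in IL-23R/IL-12Rβ1 HEK293 cells, stimulated with added 10 ng/mL IL-23 (EC90) for 5 h at 37° C and developed with BioGlo.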
structure (smiles),measurement,setting,value
"CC(=O)N[C@H](CCCNC(=N)N)C(=O)N[C@@H]1C(=O)N[C@@H](CC(N)=O)C(=O)N[C@@H]([C@@H](C)O)C(=O)N[C@@H](Cc2c[nH]c3c(C)cccc23)C(=O)N[C@@H](CCCCNC(=O)CCC(=O)N[C@H](CC(=O)O)C[N+](C)(C)C)C(=O)N[C@H](C(=O)N[C@@H](Cc2ccc(OCCNC(=O)COCCOCCNC(=O)COCCOCCNC(=O)CC[C@H](NC(=O)CCCCCCCCCCCCCCCCC(=O)O)C(=O)O)cc2)C(=O)N[C@@H](Cc2ccc3ccccc3c2)C(=O)NC2(C(=O)N[C@@H](CCC(=O)O)C(=O)N[C@@H](CC(N)=O)C(=O)N[C@@H](Cc3cccnc3)C(=O)N(C)CC(N)=O)CCOCC2)C(C)(C)SSC1(C)C [compound 13, MeCO-r-Pen(3)-N-T-7MeW-K(d)-Pen(3)-AEF(PEG2gEC18OH)-2Nal-THP-E-N-3Pya-Sar-CONH2] (Ac-[dR][Pen]NT[Trp(7-Me)]K([Suc-X2])[Pen][AEF]([AEEA-AEEA-γGlu-C18 diacid])[2Nal][Thp]EN[3Pal][Sar]-NH2; disulfide 2-7)",IC50,[1],0.0005 to 0.005 µM
same,IC50,IL-23R,0.05 to 0.5 µM
"CC(=O)NCCCC[C@@H]1NC(=O)[C@H](Cc2c[nH]c3c(C)cccc23)NC(=O)[C@H]([C@@H](C)O)NC(=O)[C@H](CCCCNC(=O)COCCOCCNC(=O)COCCOCCNC(=O)CC[C@H](NC(=O)CCCCCCCCCCCCCCCCC(=O)O)C(=O)O)NC(=O)[C@@H](NC(C)=O)C(C)(C)SSC(C)(C)[C@@H](C(=O)N[C@@H](Cc2ccc(OCCN)cc2)C(=O)N[C@@H](Cc2ccc3ccccc3c2)C(=O)NC2(C(=O)N[C@@H](CCCCNC(=O)CCC(=O)N[C@H](CC(=O)O)C[N+](C)(C)C)C(=O)N[C@@H](CC(N)=O)C(=O)N[C@@H](Cc3cccnc3)C(=O)N(C)CC(N)=O)CCOCC2)NC1=O [compound 15, MeCO-r-Pen(3)-N-T-7MeW-K(PEG2PEG2gEC18OH)-Pen(3)-AEF-2Nal-THP-K(d)-N-3Pya-Sar-CONH2] (Ac-[Pen]K([AEEA-AEEA-γGlu-C18 diacid])T[Trp(7-Me)]K(Ac)[Pen][AEF][2Nal][Thp]K([Suc-X2])N[3Pal][Sar]-NH2; disulfide 1-6)",IC50,[1],0.0005 to 0.005 µM
same,IC50,IL-23R,0.05 to 0.5 µM
"CC(=O)NCCCC[C@@H]1NC(=O)[C@H](Cc2c[nH]c3c(C)cccc23)NC(=O)[C@H]([C@@H](C)O)NC(=O)[C@H](CCCCNC(=O)COCCOCCNC(=O)COCCOCCNC(=O)CC[C@H](NC(=O)CCCCCCCCCCCCCCCCC(=O)O)C(=O)O)NC(=O)[C@@H](NC(=O)[C@@H](CCCNC(=N)N)NC(=O)CCC(=O)N[C@H](CC(=O)O)C[N+](C)(C)C)C(C)(C)SSC(C)(C)[C@@H](C(=O)N[C@@H](Cc2ccc(OCCN)cc2)C(=O)N[C@@H](Cc2ccc3ccccc3c2)C(=O)NC2(C(=O)N[C@@H](CCC(=O)O)C(=O)N[C@@H](CC(N)=O)C(=O)N[C@@H](Cc3cccnc3)C(=O)N(C)CC(N)=O)CCOCC2)NC1=O [compound 18, succiniccarn-r-Pen(3)-K(PEG2PEG2gEC18OH)-T-7MeW-K(Ac)-Pen(3)-AEF-2Nal-THP-E-N-3Pya-Sar-CONH2] ({X2-Suc}-[dR][Pen]K([AEEA-AEEA-γGlu-C18 diacid])T[Trp(7-Me)]K(Ac)[Pen][AEF][2Nal][Thp]EN[3Pal][Sar]-NH2; disulfide 2-7)",IC50,[1],< 0.0005 µM
same,IC50,IL-23R,0.05 to 0.5 µM
"Cc1cccc2c(C[C@@H]3NC(=O)[C@H]([C@@H](C)O)NC(=O)[C@H](CC(N)=O)NC(=O)[C@@H](NC(=O)[C@@H](CCCNC(=N)N)NC(=O)CCC(=O)N[C@H](CC(=O)O)C[N+](C)(C)C)C(C)(C)SSC(C)(C)[C@@H](C(=O)N[C@@H](Cc4ccc(OCCN)cc4)C(=O)N[C@@H](Cc4ccc5ccccc5c4)C(=O)NC4(C(=O)N[C@@H](CCC(=O)O)C(=O)N[C@@H](CC(N)=O)C(=O)N[C@@H](Cc5cccnc5)C(=O)N(C)CC(N)=O)CCOCC4)NC(=O)[C@H](CCCCNC(=O)COCCOCCNC(=O)COCCOCCNC(=O)CC[C@H](NC(=O)CCCCCCCCCCCCCCCCC(=O)O)C(=O)O)NC3=O)c[nH]c12 [compound 19, MeCO-r-Pen(3)-N-T-7MeW-K(PEG2PEG2gEC18OH)-Pen(3)-AEF-2Nal-THP-E-N-3Pya-NMeK(d)-CONH2] ({X2-Suc}-[dR][Pen]NT[Trp(7-Me)]K([AEEA-AEEA-γGlu-C18 diacid])[Pen][AEF][2Nal][Thp]EN[3Pal][Sar]-NH2; disulfide 2-7)",IC50,[1],< 0.0005 µM
same,IC50,IL-23R,0.05 to 0.5 µM
"CC(=O)NCCCC[C@@H]1NC(=O)[C@H](Cc2c[nH]c3c(C)cccc23)NC(=O)[C@H]([C@@H](C)O)NC(=O)[C@H](CC(N)=O)NC(=O)[C@@H](NC(=O)[C@@H](CCCNC(=N)N)NC(C)=O)C(C)(C)SSC(C)(C)[C@@H](C(=O)N[C@@H](Cc2ccc(OCCN)cc2)C(=O)N[C@@H](Cc2ccc3ccccc3c2)C(=O)NC2(C(=O)N[C@@H](CCCCNC(=O)COCCOCCNC(=O)COCCOCCNC(=O)CC[C@H](NC(=O)CCCCCCCCCCCCCCCCC(=O)O)C(=O)O)C(=O)N[C@@H](CC(N)=O)C(=O)N[C@@H](Cc3cccnc3)C(=O)N(C)[C@@H](CCCCNC(=O)CCC(=O)N[C@H](CC(=O)O)C[N+](C)(C)C)C(N)=O)CCOCC2)NC1=O [compound 21, MeCO-r-Pen(3)-N-T-7MeW-K(Ac)-Pen(3)-AEF-2Nal-THP-K(PEG2PEG2gEC18OH)-N-3Pya-NMeK(d)-CONH2] (Ac-[dR][Pen]NT[Trp(7-Me)]K(Ac)[Pen][AEF][2Nal][Thp]K([AEEA-AEEA-γGlu-C18 diacid])N[3Pal][NMeK]([Suc-X2])-NH2; disulfide 2-7)",IC50,[1],< 0.0005 µM
same,IC50,IL-23R,< 0.05 µM
"CC(=O)NCCCC[C@@H]1NC(=O)[C@H](Cc2c[nH]c3c(C)cccc23)NC(=O)[C@H]([C@@H](C)O)NC(=O)[C@H](CC(N)=O)NC(=O)[C@@H](NC(=O)[C@@H](CCCNC(=N)N)NC(C)=O)C(C)(C)SSC(C)(C)[C@@H](C(=O)N[C@@H](Cc2ccc(OCCNC(=O)CCC(=O)N[C@H](CC(=O)O)C[N+](C)(C)C)cc2)C(=O)N[C@@H](Cc2ccc3ccccc3c2)C(=O)NC2(C(=O)N[C@@H](CCCCNC(=O)COCCOCCNC(=O)COCCOCCNC(=O)CC[C@H](NC(=O)CCCCCCCCCCCCCCCCC(=O)O)C(=O)O)C(=O)N[C@@H](CC(N)=O)C(=O)N[C@@H](Cc3cccnc3)C(=O)N(C)CC(N)=O)CCOCC2)NC1=O [compound 22, MeCO-r-Pen(3)-N-T-7MeW-K(Ac)-Pen(3)-AEF(d)-2Nal-THP-K(PEG2PEG2gEC18OH)-N-3Pya-Sar-CONH2] (Ac-[dR][Pen]NT[Trp(7-Me)]K(Ac)[Pen][AEF]([Suc-X2])[2Nal][Thp]K([AEEA-AEEA-γGlu-C18 diacid])N[3Pal][Sar]-NH2; disulfide 2-7)",IC50,[1],< 0.0005 µM
same,IC50,IL-23R,< 0.05 µM
"C=CCOC(=O)CN1CCOc2ccc(cc2)C[C@H](NC(=O)[C@H]2NC(=O)[C@H](CCCCNC(C)=O)NC(=O)[C@H](Cc3c[nH]c4c(C)cccc34)NC(=O)[C@H]([C@@H](C)O)NC(=O)[C@H](CCCCNC(=O)COCCOCCNC(=O)COCCOCCNC(=O)CC[C@H](NC(=O)CCCCCCCCCCCCCCCCCC(=O)O)C(=O)O)NC(=O)[C@@H](NC(=O)CCOCCOCCNC(=O)COCCOCCNC(=O)COCCOCCNC(=O)CC[C@H](NC(=O)CCCCCCCCCCCCCCCCC(=O)O)C(=O)O)C(C)(C)SSC2(C)C)C(=O)N[C@@H](Cc2ccc3ccccc3c2)C(=O)NC2(CCOCC2)C(=O)N[C@@H]1C(=O)N[C@@H](CC(N)=O)C(=O)N[C@@H](Cc1cccnc1)C(=O)N(C)CC(N)=O [compound 24, AEEP(PEG2PEG2gEC18OH)-Pen(3)-K(PEG2PEG2gEC18OH)-T-7MeW-K(Ac)-Pen(3)-AEF-2Nal-THP-E(OAll)-N-3Pya-Sar-CONH2]",IC50,[1],0.0005 to 0.005 µM
same,IC50,IL-23R,0.05 to 0.5 µM
"CC(=O)NCCCC[C@@H]1NC(=O)[C@H](Cc2c[nH]c3c(C)cccc23)NC(=O)[C@H]([C@@H](C)O)NC(=O)[C@H](CC(N)=O)NC(=O)[C@@H](NC(=O)[C@@H](CCCNC(=N)N)NC(=O)CCOCCOCCOCCOCCNC(=S)Nc2ccc3c(c2)C(=O)OC32c3ccc(O)cc3Oc3cc(O)ccc32)C(C)(C)SSC(C)(C)[C@@H](C(=O)N[C@@H](Cc2ccc(OCCN)cc2)C(=O)N[C@@H](Cc2ccc3ccccc3c2)C(=O)NC2(C(=O)N[C@@H](CCC(=O)O)C(=O)N[C@@H](CC(N)=O)C(=O)N[C@@H](Cc3cccnc3)C(=O)N(C)CC(=O)N[C@@H](CCCCNC(=O)COCCOCCNC(=O)COCCOCCNC(=O)CC[C@H](NC(=O)CCCCCCCCCCCCCCCCC(=O)O)C(=O)O)C(N)=O)CCOCC2)NC1=O [compound 25, FITCPEG4CO-r-Pen(3)-N-T-7MeW-K(Ac)-Pen(3)-AEF-2Nal-THP-E-N-3Pya-Sar-K(PEG2PEG2gEC18OH)-CONH2] ({FITC-PEG4}-[dR][Pen]NT[Trp(7-Me)]K(Ac)[Pen][AEF][2Nal][Thp]EN[3Pal][Sar]K([AEEA-AEEA-γGlu-C18 diacid])-NH2; disulfide 2-7)",IC50,[1],0.0005 to 0.005 µM
same,IC50,IL-23R,0.05 to 0.5 µM
